Molecular target: T1, Gag-Pol polyprotein [588-1027]/[588-1147] (Human immunodeficiency virus 1, UniProt P04585)
T1 construct: 588-1027; 588-1147
Assay: HIV-1 RT Assay
Conditions: pH 7.9
Text: The IC50 of reverse transcriptase is the concentration that inhibits 50% of recombinant HIV-1 RT RNA-directed DNA polymerase activity in vitro.

Compound	IC50 [µM]
COC(=O)CCCC(=O)N1CCC(=C(c2cc(C)c(OC)c(C(=O)OC)c2)c2cc(C)c(OC)c(C(=O)OC)c2)CC1 [Methyl 5-[4-{4,4-dimethoxy-4,4-bis(methoxycarbonyl)-5,5-(dimethyl)diphenylmethylene}piperidyl]-5-oxopentanoate]	> 100
COC(=O)CCCC(=O)N1CCC(=C(c2cc(Cl)c(OC)c(C(=O)OC)c2)c2cc(Cl)c(OC)c(C(=O)OC)c2)CC1 [Methyl 5-[4-{3,3-dichloro-4,4-dimethoxy-5,5-di(methoxycarbonyl)diphenylmethylene}piperidyl]-5-oxopentanoate]	> 100
COC(=O)N1CCC(=C(c2cc(Cl)c(OC)c(C(=O)O)c2)c2cc(Cl)c(OC)c(C(=O)O)c2)CC1 [Methyl 4-(3,3-dicarboxy-5,5-dichloro-4,4-dimethoxydiphenylmethylene)piperidinecarboxylate]	> 100
CCOC(=O)N1CCC(=C(c2cc(C)c(OC)c(C(=O)OC)c2)c2cc(C)c(OC)c(C(=O)OC)c2)CC1 [ethyl 4-{bis[4-methoxy-3-(methoxycarbonyl)-5-methylphenyl]methylidene}piperidine-1-carboxylate]	> 100
COC(=O)c1cc(C(c2cc(C)c(OC)c(C(=O)OC)c2)C2CCN(C(=O)OC)CC2)cc(C)c1OC [Methyl 4 - (4,4 - dimethoxy - 3,3 - di(methoxycarbonyl)-5,5-dimethyl-diphenylmethyl)piperidinecarboxylate]	> 100
CCOC(=O)N1CCC(C(c2cc(C)c(OC)c(C(=O)OC)c2)c2cc(C)c(OC)c(C(=O)OC)c2)CC1 [Ethyl 4 - (4,4 - dimethoxy - 3,3 - di(methoxycarbonyl)-5,5-dimethyl-diphenylmethyl)piperidinecarboxylate]	> 100
COC(=O)c1cc(C(=C2CCN(C(=O)OC)CC2)c2cc(C)c(OC)c(C(=O)OC)c2)cc(C)c1OC [Methyl 4-(4,4-dimethoxy-3,3 - di(methoxycarbonyl) -5,5 - dimethyl - diphenylmethylene)piperidinecarboxylate]	> 100
COC(=O)c1cc(C(=C2CCN(C(=O)OC)CC2)c2cc(Cl)c(OC)c(C(=O)OC)c2)cc(Cl)c1OC [methyl 4-{bis[3-chloro-4-methoxy-5-(methoxycarbonyl)phenyl]methylidene}piperidine-1-carboxylate]	> 100
COC(=O)N1CCC(=C2c3ccccc3CCc3ccccc32)CC1 [methyl 4-{tricyclo[9.4.0.0^{3,8}]pentadeca-1(11),3,5,7,12,14-hexaen-2-ylidene}piperidine-1-carboxylate]	> 100
COC(=O)N1CCC(=C2c3ccccc3C=Cc3ccccc32)CC1 [methyl 4-{tricyclo[9.4.0.0^{3,8}]pentadeca-1(11),3,5,7,9,12,14-heptaen-2-ylidene}piperidine-1-carboxylate]	> 100
CCOC(=O)N1CCC(=C(c2cc(Cl)c3c(c2)C(=O)OC(C)(C)O3)c2cc(Cl)c3c(c2)C(=O)OC(C)(C)O3)CC1 [ethyl 4-[bis(8-chloro-2,2-dimethyl-4-oxo-2,4-dihydro-1,3-benzodioxin-6-yl)methylidene]piperidine-1-carboxylate]	> 100
CCOC(=O)N1CCC(=C(c2cc(Cl)c(O)c(C(=O)O)c2)c2cc(Cl)c(O)c(C(=O)O)c2)CC1 [5-[(3-carboxy-5-chloro-4-hydroxyphenyl)[1-(ethoxycarbonyl)piperidin-4-ylidene]methyl]-3-chloro-2-hydroxybenzoic acid]	> 100
CCOC(=O)N1CCC(=C(c2cc(Cl)c(OC)c(C(=O)O)c2)c2cc(Cl)c(OC)c(C(=O)O)c2)CC1 [Ethyl 4-(3,3-dicarboxy-5,5-dichloro-4,4-dimethoxydiphenylmethylene)piperidinecarboxylate]	> 100
CCOC(=O)N1CCC(=C(c2cc(Cl)c(OC)c(C(=O)OC)c2)c2cc(Cl)c(OC)c(C(=O)OC)c2)CC1 [Ethyl 4-(3,3-dichloro-4,4-dimethoxy-5,5-di(methoxycarbonyl)-diphenylmethylene)piperidinecarboxylate]	> 100

From BindingDB's records for doi:10.1016/s0968-0896(02)00095-0 (Purdue University, 2002)
